Experimental data from publication PMC9324262, “Selective CDK9 Inhibition by Natural Compound Toyocamycin in Cancer Cells” (Cancers, 2022).

Assays:
CDK4/Cyclin D3 = molecular target: T1, CDK4/Cyclin D3 (Homo sapiens, UniProt P11802); experiment: in vitro kinase assay CDK4/Cyclin D3 (Kinase-Glo Plus); format: biochemical
T1 construct: purchased BPS Bioscience
Experimental: (§1) The in vitro enzymatic assays were conducted at BPS Bioscience. CDK9/Cyclin T1, CDK2/Cyclin 2A, CDK4/Cyclin D3, and CDK6/Cyclin D3 enzymatic activities were tested with an ATP Kinase-Glo Plus Luminescence kinase assay kit (Promega, V6073, Madison, WI, USA), while the CDK7/Cyclin H/MAT1 activities were tested using ADP-Glo Kinase (Promega, V6930). These assays measure kinase activity by quantifying the amount of ATP or ADP remaining in solution following a kinase reaction. The luminescent signal from the assay is correlated to the amount of ATP or ADP present and is inversely correlated to the kinase activity. The compounds were diluted to 10% DMSO and were added to the reaction so that the final concentration of DMSO was 1% in all reactions. All enzymatic reactions were conducted at 30 °C for 60 min. […] After the enzymatic reaction, the luminescence signal was measured using a BioTek Synergy 2 microplate reader (Agilent, Santa Clara, CA, USA). Kinase activity assays were performed in duplicate at each concentration and the percent of kinase activity was calculated as a ratio of luminescence intensities in the absence or in presence of the compounds. […] IC50 values were determined by the concentration causing a half-maximal percent activity (BPS Bioscience, San Diego, CA, USA).

RNA-Pol II Ser2-P = experiment: Western blot, RNA Pol II and phospho-Pol II Ser2; format: cell-based, human; settings: 6 h
Experimental: YB5 cells were harvested in 50 mM Tris-HCl, 1% NP-40, 1 mM EDTA, 1 mM EGTA, 0.25% sodium deoxycholate, 150 mM NaCl, 50 mM sodium fluoride, and 1X Complete protease cocktail (Roche, Basel, Switzerland) with 1 mM PMSF. The total protein concentration was measured in all samples by standard BCA protocol (Pierce-23225, Thermo Scientific, Waltham, MA, USA) to ensure that an equal amount of protein was added to each sample. Protein extracts were run on 12% SDS–PAGE precast gels (Bio-Rad, Hercules, CA, USA, 345-0118). Proteins were transferred to polyvinylidene difluoride (PVDF) membranes in 10 mmol/L CAPS (pH-11) containing 10% methanol and detected by using specific primary antibodies, horseradish peroxidase–conjugated secondary antibodies (GE Healthcare, Chicago, IL, USA), and an enhanced chemiluminescence reagent (Pierce). PVDF membranes were incubated with specific primary antibodies (actin—A5441, Sigma, St. Louis, MO, USA; HA-tagged—H9608, Sigma; FLAG-tagged—F3165, Sigma). FLAG- and HA-tagged CDK9 plasmids were a generous gift from Dr Bassel E. Sawaya (Temple University). For CDK9 target modulation, HCT116 colon cancer cells were treated with toyocamycin or known CDK9 inhibitor BAY1251152 (Selleckchem, Houston, TX, USA). Whole cell extracts were obtained by lysing cells with 25 mM Tris (pH 7.3) and 1% sodium dodecyl sulfate (SDS). After sonication, total protein concentrations were determined using Bradford protein assay. The following primary antibodies were used to investigate the effect of CDK9 inhibition: Pol II against the N-term region (sc-55492, Santa Cruz, Dallas, TX, USA), Pol II against the C-term region (39097, Active motif, Carlsbad, CA, USA), Pol II phospho CTD ser2 (14-9802-82, Invitrogen, Waltham, MA, USA), Rb (ab181616, Abcam, Cambridge, UK), Rb phospho T826 (ab133446, Abcam, Cambridge, UK), CDK9 (ab39098, Abcam, Cambridge, UK), and actin (ab1801, Abcam, Cambridge, UK). Images were acquired with an Image Quant LAS4000 device from GE Healthcare Life Sciences. Band intensity quantifications were calculated using ImageJ software, edition 1.53 [27].

CDK2/Cyclin 2A = molecular target: T2, CDK2/Cyclin 2A (Homo sapiens, UniProt P24941); experiment: biochemical; settings: 10 µM ATP, 30 °C, 60 min
T2 construct: purchased BPS Bioscience
Experimental: as §1

[1] = cell viability by Viacount, HCT116; format: cell-based; settings: human, HCT116 colon cancer cells; 24 and 72 h, 50 nM to 50 µM, highest doses; read-out: cell viability relative to untreated cells
Experimental: (§2) Cell viability was measured in YB5 and HCT166 cells using Viacount (Luminex, Austin, TX, USA, 4000-0040) on a Guava flow cytometer (Millipore, Burlington, MA, USA). Colon cancer cells were grown in 96-well plates in the same conditions as in the drug screen and treated with toyocamycin and known CDK9 inhibitor BAY1251152 (Selleckchem, Houston, TX, USA). Cell culture media of each well was collected to harvest floating dead cells and kept aside for later. Cells were trypsinized (0.25% trypsin, Gibco, Waltham, MA, USA) for 5 min at 37 °C. Cell culture media of each well was added back to their corresponding wells to stop trypsinization and mixed thoroughly to obtain a single cell suspension. Viacount solution (Luminex, Austin, TX, USA, 4000-0040, 25 μL) was added to each well, and incubated (5 min at room temperature, in the dark) prior to cell viability analysis on the Guava flow cytometer.

CDK6/Cyclin D3 = molecular target: T3, CDK6/Cyclin D3 (Homo sapiens, UniProt Q00534); experiment: in vitro kinase assay CDK6/Cyclin D3 (Kinase-Glo Plus); format: biochemical
T3 construct: purchased BPS Bioscience
T3 sequence (Q00534 whole entry): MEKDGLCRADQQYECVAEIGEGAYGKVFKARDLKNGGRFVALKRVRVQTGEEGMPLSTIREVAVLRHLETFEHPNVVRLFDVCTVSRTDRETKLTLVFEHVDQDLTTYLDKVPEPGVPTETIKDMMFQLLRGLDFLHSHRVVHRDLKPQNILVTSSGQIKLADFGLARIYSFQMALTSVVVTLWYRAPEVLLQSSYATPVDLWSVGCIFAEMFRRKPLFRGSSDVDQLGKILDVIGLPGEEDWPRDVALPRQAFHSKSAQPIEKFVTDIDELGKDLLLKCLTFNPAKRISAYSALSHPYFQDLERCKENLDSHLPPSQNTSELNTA
T3 sequence (P30281 whole entry partner): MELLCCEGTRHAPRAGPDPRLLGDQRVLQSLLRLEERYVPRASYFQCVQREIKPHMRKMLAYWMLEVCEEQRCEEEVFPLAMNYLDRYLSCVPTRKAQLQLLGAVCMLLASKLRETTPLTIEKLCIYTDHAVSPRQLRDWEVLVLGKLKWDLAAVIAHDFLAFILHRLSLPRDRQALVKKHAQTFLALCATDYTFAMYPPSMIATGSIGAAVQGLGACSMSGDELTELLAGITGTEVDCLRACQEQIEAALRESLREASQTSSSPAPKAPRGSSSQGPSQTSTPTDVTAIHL
Experimental: as §1

CDK9 = experiment: Western blot, CDK9 protein level; format: cell-based, human; settings: HCT116, 50–500 nM, 6 h
Experimental: YB5 cells were harvested in 50 mM Tris-HCl, 1% NP-40, 1 mM EDTA, 1 mM EGTA, 0.25% sodium deoxycholate, 150 mM NaCl, 50 mM sodium fluoride, and 1X Complete protease cocktail (Roche, Basel, Switzerland) with 1 mM PMSF. The total protein concentration was measured in all samples by standard BCA protocol (Pierce-23225, Thermo Scientific, Waltham, MA, USA) to ensure that an equal amount of protein was added to each sample. Protein extracts were run on 12% SDS–PAGE precast gels (Bio-Rad, Hercules, CA, USA, 345-0118). Proteins were transferred to polyvinylidene difluoride (PVDF) membranes in 10 mmol/L CAPS (pH-11) containing 10% methanol and detected by using specific primary antibodies, horseradish peroxidase–conjugated secondary antibodies (GE Healthcare, Chicago, IL, USA), and an enhanced chemiluminescence reagent (Pierce). PVDF membranes were incubated with specific primary antibodies (actin—A5441, Sigma, St. Louis, MO, USA; HA-tagged—H9608, Sigma; FLAG-tagged—F3165, Sigma). FLAG- and HA-tagged CDK9 plasmids were a generous gift from Dr Bassel E. Sawaya (Temple University). […] After sonication, total protein concentrations were determined using Bradford protein assay. […] Band intensity quantifications were calculated using ImageJ software, edition 1.53 [27].

[2] = cell viability by Viacount, YB5; format: cell-based; settings: human, YB5 colon cancer cells; 24 and 72 h, 50 nM to 50 µM, highest doses; read-out: cell viability relative to untreated cells
Experimental: as §2

HCT116 cells = experiment: cell cycle analysis by flow cytometry; format: cell-based, human
Experimental: For cell cycle analysis, cells were cultured in T25 flasks, trypsinized, and washed with PBS. Then, 1 × 10^6 cells were fixed in 100% cold ethanol overnight at −20 °C. Cells were then washed with PBS and treated with 100 μg/mL RNase A (Invitrogen, Waltham, MA USA) for 20 min, at 37 °C. DNA was stained with 5 μg/mL propidium iodide (Sigma, St. Louis, MO, USA). The cell cycle was analyzed by flow cytometry using a Guava® easyCyte HT System (Millipore) with GuavaSoft 3.2 software.

[3] = 6 h treatment followed by 18 h without exposure

T1 sequence (P11802 whole entry): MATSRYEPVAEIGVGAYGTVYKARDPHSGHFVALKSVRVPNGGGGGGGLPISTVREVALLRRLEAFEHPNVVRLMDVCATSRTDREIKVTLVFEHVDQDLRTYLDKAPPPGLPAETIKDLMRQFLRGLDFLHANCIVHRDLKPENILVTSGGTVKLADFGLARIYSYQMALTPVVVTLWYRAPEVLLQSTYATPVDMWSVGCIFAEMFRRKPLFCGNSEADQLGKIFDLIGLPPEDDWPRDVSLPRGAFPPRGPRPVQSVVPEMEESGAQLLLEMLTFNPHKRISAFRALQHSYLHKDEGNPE
T1 sequence (P30281 whole entry partner): as the sequence (P30281 whole entry partner) above

With `N#Cc1cn([C@@H]2O[C@H](CO)[C@@H](O)[C@H]2O)c2ncnc(N)c12` [toyocamycin, 7-Deaza-7-cyanoadenosine] the IC50 (CDK4/Cyclin D3) was 15 µM, the “RNA-Pol II ser 2 phosphorylation” value (RNA-Pol II Ser2-P; HCT116, 350–500 nM) was “significantly reduced” and the “RNA Pol II band intensity, Pol II C-terminal antibody” value (RNA-Pol II Ser2-P; HCT116, above 350 nM) was “reduced the RNA Pol II band intensity”. It also gave an IC50 (CDK2/Cyclin 2A) of 0.67 µM, a viability [1] of over 50% and an IC50 (CDK6/Cyclin D3) of over 10 µM. The CDK9 levels (CDK9) was “did not change”, the viability [2] was over 50% and the apoptotic cells (HCT116 cells; [3]) was 10%. For the same compound, the cell cycle (HCT116 cells; [3]) was “not significantly impacted” and the cell cycle (HCT116 cells; 24 h treatment, 500–1000 nM) was “significantly blocked the cell cycle”.
